# Assay results taken from ChEMBL document CHEMBL3885881, “DrugMatrix”.
# Species on record: Rattus norvegicus
# Assay: DrugMatrix - Regimen: Daily Repeat
# Format: toxicity, organism-based, Sprague-Dawley
# Parameters: regimen Daily Repeat, gender Male, age 6-8 weeks
# Settings: in vivo, po, route oral GAVAGE, vehicle 100 % WATER; for ABSOLUTE BASOPHIL / ABSOLUTE EOSINOPHIL / ABSOLUTE LYMPHOCYTE / ABSOLUTE MONOCYTE / ABSOLUTE SEGMENTED NEUTROPHIL / BASOPHIL / EOSINOPHIL / ERYTHROCYTE COUNT / HEMATOCRIT / HEMOGLOBIN / LEUKOCYTE COUNT / LYMPHOCYTE / MEAN CORPUSCULAR HEMOGLOBIN / MEAN CORPUSCULAR HEMOGLOBIN CONCENTRATION / MEAN CORPUSCULAR VOLUME / MONOCYTE / NEUTROPHIL / NUCLEATED RED BLOOD CELLS / PLATELET COUNT: tissue Blood; for ALANINE AMINOTRANSFERASE / ALBUMIN / ALKALINE PHOSPHATASE / ASPARTATE AMINOTRANSFERASE / BLOOD UREA NITROGEN / CARBON DIOXIDE / CHLORIDE / CHOLESTEROL / CREATINE PHOSPHOKINASE / CREATININE / GLUCOSE / LACTATE DEHYDROGENASE / LIPASE / PHOSPHORUS / POTASSIUM / SODIUM / TOTAL BILIRUBIN / TOTAL PROTEIN / URIC ACID: tissue Plasma
# [1] = 100 mg/kg, 120 h, dose level Low, time 5 day
# [2] = 2500 mg/kg, 72 h, dose level High, time 3 day
# [3] = 2500 mg/kg, 120 h, dose level High, time 5 day
structure (smiles),measurement,setting,value
NCC1(CC(=O)O)CCCCC1 [GABAPENTIN],ABSOLUTE BASOPHIL,[1],0 CELLS/uL
same,ABSOLUTE EOSINOPHIL,[1],0 CELLS/uL
same,ABSOLUTE LYMPHOCYTE,[1],13861.67 CELLS/uL
same,ABSOLUTE MONOCYTE,[1],159 CELLS/uL
same,ABSOLUTE SEGMENTED NEUTROPHIL,[1],1246 CELLS/uL
same,BASOPHIL,[1],0%
same,EOSINOPHIL,[1],0%
same,ERYTHROCYTE COUNT,[1],5.64 x10E6/uL
same,HEMATOCRIT,[1],35.7%
same,HEMOGLOBIN,[1],14.27 G/DL
same,LEUKOCYTE COUNT,[1],15.27 x10E3/uL
same,LYMPHOCYTE,[1],91%
same,MEAN CORPUSCULAR HEMOGLOBIN,[1],25.33 pg
same,MEAN CORPUSCULAR HEMOGLOBIN CONCENTRATION,[1],39.97 G/DL
same,MEAN CORPUSCULAR VOLUME,[1],63.33 fL
same,MONOCYTE,[1],1%
same,NEUTROPHIL,[1],8%
same,NUCLEATED RED BLOOD CELLS,[1],0 /100WBC
same,PLATELET COUNT,[1],1093 x10E3/uL
same,ALANINE AMINOTRANSFERASE,[1],54.67 u/L
same,ALBUMIN,[1],4.37 G/DL
same,ALKALINE PHOSPHATASE,[1],380.67 u/L
same,ASPARTATE AMINOTRANSFERASE,[1],86 u/L
same,BLOOD UREA NITROGEN,[1],15.67 mg/dL
same,CARBON DIOXIDE,[1],31.33 mmol/L
same,CHLORIDE,[1],101.67 MEQ/L
same,CHOLESTEROL,[1],72.33 mg/dL
same,CREATINE PHOSPHOKINASE,[1],410.33 u/L
same,CREATININE,[1],0.16 mg/dL
same,GLUCOSE,[1],172.67 mg/dL
same,LACTATE DEHYDROGENASE,[1],185.67 u/L
same,LIPASE,[1],9.67 u/L
same,PHOSPHORUS,[1],11.93 mg/dL
same,POTASSIUM,[1],6 MEQ/L
same,SODIUM,[1],144.93 MEQ/L
same,TOTAL BILIRUBIN,[1],0.1 mg/dL
same,TOTAL PROTEIN,[1],6.07 G/DL
same,URIC ACID,[1],1.23 mg/dL
same,ABSOLUTE BASOPHIL,[2],0 CELLS/uL
same,ABSOLUTE EOSINOPHIL,[2],0 CELLS/uL
same,ABSOLUTE LYMPHOCYTE,[2],17008 CELLS/uL
same,ABSOLUTE MONOCYTE,[2],0 CELLS/uL
same,ABSOLUTE SEGMENTED NEUTROPHIL,[2],1925.33 CELLS/uL
same,BASOPHIL,[2],0%
same,EOSINOPHIL,[2],0%
same,ERYTHROCYTE COUNT,[2],5.55 x10E6/uL
same,HEMATOCRIT,[2],36.63%
same,HEMOGLOBIN,[2],14.27 G/DL
same,LEUKOCYTE COUNT,[2],18.93 x10E3/uL
same,LYMPHOCYTE,[2],90%
same,MEAN CORPUSCULAR HEMOGLOBIN,[2],25.7 pg
same,MEAN CORPUSCULAR HEMOGLOBIN CONCENTRATION,[2],38.93 G/DL
same,MEAN CORPUSCULAR VOLUME,[2],66.03 fL
same,MONOCYTE,[2],0%
same,NEUTROPHIL,[2],10%
same,NUCLEATED RED BLOOD CELLS,[2],0.33 /100WBC
same,PLATELET COUNT,[2],1357 x10E3/uL
same,ALANINE AMINOTRANSFERASE,[2],70.67 u/L
same,ALBUMIN,[2],4.47 G/DL
same,ALKALINE PHOSPHATASE,[2],324.33 u/L
same,ASPARTATE AMINOTRANSFERASE,[2],79.67 u/L
same,BLOOD UREA NITROGEN,[2],15 mg/dL
same,CARBON DIOXIDE,[2],30.67 mmol/L
same,CHLORIDE,[2],99.67 MEQ/L
same,CHOLESTEROL,[2],90 mg/dL
same,CREATINE PHOSPHOKINASE,[2],203.33 u/L
same,CREATININE,[2],0.15 mg/dL
same,GLUCOSE,[2],164.33 mg/dL
same,LACTATE DEHYDROGENASE,[2],162 u/L
same,LIPASE,[2],11.33 u/L
same,PHOSPHORUS,[2],13.37 mg/dL
same,POTASSIUM,[2],6.75 MEQ/L
same,SODIUM,[2],143.83 MEQ/L
same,TOTAL BILIRUBIN,[2],0.1 mg/dL
same,TOTAL PROTEIN,[2],6.13 G/DL
same,URIC ACID,[2],2.23 mg/dL
same,ABSOLUTE BASOPHIL,[3],0 CELLS/uL
same,ABSOLUTE EOSINOPHIL,[3],0 CELLS/uL
same,ABSOLUTE LYMPHOCYTE,[3],12458 CELLS/uL
same,ABSOLUTE MONOCYTE,[3],100 CELLS/uL
same,ABSOLUTE SEGMENTED NEUTROPHIL,[3],1842 CELLS/uL
same,BASOPHIL,[3],0%
same,EOSINOPHIL,[3],0%
same,ERYTHROCYTE COUNT,[3],5.12 x10E6/uL
same,HEMATOCRIT,[3],32.03%
same,HEMOGLOBIN,[3],13.13 G/DL
same,LEUKOCYTE COUNT,[3],14.4 x10E3/uL
same,LYMPHOCYTE,[3],86.33%
same,MEAN CORPUSCULAR HEMOGLOBIN,[3],25.67 pg
same,MEAN CORPUSCULAR HEMOGLOBIN CONCENTRATION,[3],41 G/DL
same,MEAN CORPUSCULAR VOLUME,[3],62.57 fL
same,MONOCYTE,[3],0.67%
same,NEUTROPHIL,[3],13%
same,NUCLEATED RED BLOOD CELLS,[3],0 /100WBC
same,PLATELET COUNT,[3],1217 x10E3/uL
same,ALANINE AMINOTRANSFERASE,[3],71.67 u/L
same,ALBUMIN,[3],4.3 G/DL
same,ALKALINE PHOSPHATASE,[3],373 u/L
same,ASPARTATE AMINOTRANSFERASE,[3],84.67 u/L
same,BLOOD UREA NITROGEN,[3],19.67 mg/dL
same,CARBON DIOXIDE,[3],28.67 mmol/L
same,CHLORIDE,[3],102.33 MEQ/L
same,CHOLESTEROL,[3],64 mg/dL
same,CREATINE PHOSPHOKINASE,[3],156 u/L
same,CREATININE,[3],0.17 mg/dL
same,GLUCOSE,[3],148.33 mg/dL
same,LACTATE DEHYDROGENASE,[3],96.67 u/L
same,LIPASE,[3],8 u/L
same,PHOSPHORUS,[3],11.7 mg/dL
same,POTASSIUM,[3],6.37 MEQ/L
same,SODIUM,[3],144.6 MEQ/L
same,TOTAL BILIRUBIN,[3],0.17 mg/dL
same,TOTAL PROTEIN,[3],6.03 G/DL
same,URIC ACID,[3],1.33 mg/dL
